Experimental data taken from paper PMC7070283, “Effect of Copper on the Mitochondrial Carnitine/Acylcarnitine Carrier Via Interaction with Cys136 and Cys155. Possible Implications in Pathophysiology” (Molecules, 2020).

Target: T1, native carnitine/acylcarnitine carrier (CAC) (Rattus norvegicus, UniProt P97521)
T1 construct: the native protein extracted from rat liver mitochondria; from tissue; host or cells: rat liver mitochondria
T1 sequence (P97521 1-301): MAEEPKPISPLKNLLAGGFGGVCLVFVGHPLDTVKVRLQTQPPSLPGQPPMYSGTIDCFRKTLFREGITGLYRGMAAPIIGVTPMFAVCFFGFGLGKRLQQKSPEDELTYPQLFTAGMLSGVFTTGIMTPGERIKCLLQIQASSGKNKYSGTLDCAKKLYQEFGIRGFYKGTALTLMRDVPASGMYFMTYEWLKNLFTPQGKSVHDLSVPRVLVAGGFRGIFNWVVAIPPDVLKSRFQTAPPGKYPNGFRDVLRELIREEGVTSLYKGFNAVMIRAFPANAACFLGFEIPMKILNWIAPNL
Assay: [3H]carnitine/carnitine antiport in proteoliposomes reconstituted with native CAC extracted from rat liver mitochondria
Type: biochemical
Details: intact rat liver mitochondria incubated 1 h with CuCl2 (50 µM) or GSH (5 mM), then CAC extracted and reconstituted
Experimental: Figure 2 Dose-response analysis of copper effect on the native CAC. Proteoliposomes reconstituted with the CAC extracted from rat liver mitochondria were incubated with (○) CuCl2 or (●) CuCl at the indicated concentrations for 1 min, and then the transport activity was measured by adding 0.1 mM [^3H]carnitine and stopped after 10 min as described in Materials and Methods. Percent of residual activity with respect to the control, without copper treatment, is reported. The values are the means ± SD from three independent experiments.
The recombinant CAC (WT and mutant) proteins were used for proteoliposome formation as previously described. For the experiments with the native protein, rat liver mitochondria were first purified using the standard procedure of cell disruption and differential centrifugation. […]
Transport was started by adding 0.1 mM [^3H]carnitine to proteoliposome samples and, at the indicated time interval stopped by 1.5 mM NEM. […] After terminating the transport reaction, the external substrate was removed by chromatography on Sephadex G-75 columns, and the intraliposomal radioactivity was measured. Transport was measured at 25 °C. […] Transport rates were measured in 5 min, i.e., within the initial linear range of the time course.

N[C@@H](CCC(=O)N[C@@H](CS)C(=O)NCC(=O)O)C(=O)O [GSH, reduced glutathione]
effect on transport with respect to protein from untreated mitochondria: did not exert any appreciable effect
